Article PMC12029982, “The Mechanism of a Novel Mitochondrial-Targeted Icaritin Derivative in Regulating Apoptosis of BEL-7402 Cells Based on the SIRT3 and CypD-Mediated ROS/p38 MAPK Signaling Pathway” (Molecules, 2025)

Key:
HEK293 = test: MTT assay, cytotoxicity to normal cell line; type: cell-based, human; settings: Homo sapiens, HEK293; MTT, 48 h drug exposure, mean ± SD; normal cell line
Procedure: (§1) Human cancer cell lines BEL-7402, A549, MCF-7, PC-3M, and normal renal cell line HEK293 were bought from the BeNa Culture Collection (Beijing, China). BEL7402, A549, and PC-3M were cultured in RPMI 1640 medium (Gibco, Carlsbad, CA, USA). MCF-7 and HEK293 were cultured in the DMEM medium (Gibco, CA, USA). The medium was supplemented with 10% fetal bovine serum (FBS) (CLARK, San Diego, CA, USA), 100 U/mL penicillin, and 0.1 mg/mL streptomycin (Beyotime, Nanjing, China). The cells were incubated in 5% CO2 at 37 °C.
(§2) The MTT assay was employed to assess the inhibitory effect of each compound on cell growth. A549, PC-3M, MCF-7, BEL-7402, and HEK293 cells in the logarithmic growth phase were seeded in 96-well culture plates at an inoculum density of 5 × 10^4 cells/mL. After overnight incubation at 37 °C in a 5% CO2 atmosphere, the cells fully adhered to the surface. Different concentrations of sample solutions (0, 3.125, 6.25, 12.5, 25, 50, 100 μmol/L) were added (100 μL) to treat the cells. After 48 h of drug treatment, 10 μL of a 5 mg/mL MTT solution was added to each well and incubated for 4 h at 37 °C. The supernatant was then discarded, and 150 μL of DMSO was added to dissolve the formazan. The mixture was shaken at room temperature for 15 min, and the absorbance (D) value was measured at 490 nm using a Microplate Reader (HBS-ScanY, Nanjing, China). The drug IC50 values were calculated using GraphPad Prism (v10.0). Each cell viability experiment was performed in triplicate.

A549 = test: MTT assay, antiproliferative activity; type: cell-based; settings: Homo sapiens, 48 h drug exposure, mean ± SD
Procedure: as §1, §2

BEL-7402 = test: MTT assay, antiproliferative activity; type: cell-based; settings: Homo sapiens, 48 h drug exposure, mean ± SD
Procedure: as §1, §2

MCF-7 = test: MTT assay, antiproliferative activity; type: cell-based; settings: Homo sapiens, MCF7, 48 h drug exposure, mean ± SD
Procedure: as §1, §2

PC-3M = test: MTT assay, antiproliferative activity; type: cell-based; settings: Homo sapiens, 48 h drug exposure, mean ± SD
Procedure: as §1, §2

SMILES | IC50 (HEK293) [µM] | IC50 (A549) [µM] | IC50 (BEL-7402) [µM] | IC50 (MCF-7) [µM] | IC50 (PC-3M) [µM]
COc1ccc(-c2oc3c(CC=C(C)C)c(OC(=O)CCCCBr)cc(O)c3c(=O)c2O)cc1 [Compound 1] | 46.8 ± 1.82 | 35.8 ± 3.57 | 47.8 ± 2.65 | 25.8 ± 1.07 | 44.5 ± 2.15
COc1ccc(-c2oc3c(CC=C(C)C)c(OC(=O)CCCCCCBr)cc(O)c3c(=O)c2O)cc1 [Compound 2] | > 100 | > 100 | 40.6 ± 5.5 | 42.1 ± 5.47 | 76.1 ± 4.44
COc1ccc(-c2oc3c(CC=C(C)C)c(OC(=O)CCCCCCCCBr)cc(O)c3c(=O)c2O)cc1 [Compound 3] | > 100 | > 100 | > 100 | > 100 | > 100
COc1ccc(-c2oc3c(CC=C(C)C)c(OC(=O)CCCCCCCCCCBr)cc(O)c3c(=O)c2O)cc1 [Compound 4] | > 100 | > 100 | > 100 | > 100 | 76 ± 4.69
O=c1[nH]cc(F)c(=O)[nH]1 [Compound 5-FU, 5-fluorouracil, reference compound] | > 100 | 86.2 ± 7.94 | 39 ± 1.32 | 13.5 ± 2.78 | 58.7 ± 2.64
CCCCC(=O)Oc1cc(O)c2c(=O)c(O)c(-c3ccc(OC)cc3)oc2c1CC=C(C)C [Compound 5] | 77.2 ± 5.13 | 97.8 ± 6.4 | 39.9 ± 2.06 | 48.9 ± 1.42 | 60.2 ± 3.88
CCCCCCC(=O)Oc1cc(O)c2c(=O)c(O)c(-c3ccc(OC)cc3)oc2c1CC=C(C)C [Compound 6] | > 100 | > 100 | 40.6 ± 5.17 | 45.6 ± 3.02 | > 100
CCCCCCCCC(=O)Oc1cc(O)c2c(=O)c(O)c(-c3ccc(OC)cc3)oc2c1CC=C(C)C [Compound 7] | > 100 | > 100 | 74.6 ± 4.83 | > 100 | > 100
CCCCCCCCCCC(=O)Oc1cc(O)c2c(=O)c(O)c(-c3ccc(OC)cc3)oc2c1CC=C(C)C [Compound 8] | > 100 | > 100 | > 100 | > 100 | > 100
COc1cccc2c1C(=O)c1c(O)c3c(c(O)c1C2=O)C[C@@](O)(C(=O)CO)C[C@@H]3O[C@H]1C[C@H](N)[C@H](O)[C@H](C)O1 [DOX, doxorubicin, reference compound] | > 100 | 6.88 ± 0.62 | 3.23 ± 0.64 | 2.44 ± 0.81 | 0.24 ± 0.11
COc1ccc(-c2oc3c(CC=C(C)C)c(O)cc(O)c3c(=O)c2O)cc1 [ICT, Icaritin] | 43.2 ± 3.05 | 43.1 ± 1.93 | 21.8 ± 2.42 | 25.7 ± 1.89 | 63.6 ± 2.67
COc1ccc(-c2oc3c(CC=C(C)C)c(OC(=O)CCCC[P+](c4ccccc4)(c4ccccc4)c4ccccc4)cc(O)c3c(=O)c2O)cc1 [Mito-ICT-1] | 47 ± 2.91 | 21.1 ± 2.67 | 2.85 ± 0.7 | 10.7 ± 0.35 | 33.6 ± 2.53
COc1ccc(-c2oc3c(CC=C(C)C)c(OC(=O)CCCCCC[P+](c4ccccc4)(c4ccccc4)c4ccccc4)cc(O)c3c(=O)c2O)cc1 [Mito-ICT-2] | 53.7 ± 5.15 | 10.7 ± 1.09 | 3.43 ± 0.91 | 23.7 ± 2.24 | 27.8 ± 1.74
COc1ccc(-c2oc3c(CC=C(C)C)c(OC(=O)CCCCCCCC[P+](c4ccccc4)(c4ccccc4)c4ccccc4)cc(O)c3c(=O)c2O)cc1 [Mito-ICT-3] | 55 ± 3.92 | 13.7 ± 0.92 | 3.85 ± 0.69 | 22.5 ± 1.78 | 20.6 ± 2.06
